Results as given in ChEMBL document CHEMBL5096202, “Carbon-silicon switch led to the discovery of novel synthetic cannabinoids with therapeutic effects in a mouse model of multiple sclerosis” (Eur J Med Chem, 2021).
Active and inactive are the calls of the source. The rule behind the calls is not given here.

Experiments:
[1] = Metabolic stability in mouse liver microsomes assessed as intrinsic clearance; assay type: ADME, Microsome; conditions: read-out: CLH
[2] = Tmax in C57BL/6 mouse at 10 mg/kg, ip measured upto 24 hrs by LC-MS/MS analysis; assay type: ADME, organism-based; conditions: in vivo
Cannabinoid receptor 2 [3] = molecular target: T1, Cannabinoid receptor 2 (Homo sapiens, UniProt P34972); assay: Displacement of [3H]-CP55940 from recombinant human CB2 receptor expressed in CHO cells assessed as inhibition constant incubated for 120 mins by radioligand binding assay; assay type: cell-based
T1 sequence (P34972 whole entry, the tested form may be a part): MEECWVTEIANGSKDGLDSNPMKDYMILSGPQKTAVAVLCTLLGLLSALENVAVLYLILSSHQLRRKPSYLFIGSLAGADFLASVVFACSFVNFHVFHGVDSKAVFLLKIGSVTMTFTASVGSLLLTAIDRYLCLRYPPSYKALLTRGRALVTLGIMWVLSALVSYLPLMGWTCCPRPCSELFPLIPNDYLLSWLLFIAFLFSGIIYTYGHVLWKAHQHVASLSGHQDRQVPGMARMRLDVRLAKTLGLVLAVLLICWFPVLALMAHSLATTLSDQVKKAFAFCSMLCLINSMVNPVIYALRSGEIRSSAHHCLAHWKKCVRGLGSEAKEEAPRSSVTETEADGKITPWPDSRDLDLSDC

Mus musculus [4] = assay: (§1) Antiinflammatory activity in MOG (35 to 55 residues)/pertussis toxin-induced experimental autoimmune encephalomyelitis C57BL/6 mouse model assessed as reduction in demyelination in transverse section of lumbar spinal cords at 5 to 10 mg/kg, ip administered starting from day 3 to day 28 by H&E staining based analysis; assay type: functional, organism-based; conditions: dose 5-10 mg/kg, time 25.0 day
Cannabinoid receptor 2 [5] = molecular target: T1, Cannabinoid receptor 2; assay: Agonist activity at recombinant human CB2 receptor expressed in CHO cells assessed as inhibition of forskolin-induced cAMP accumulation preincubated for 15 mins followed by forskolin stimulation and measured after 15 mins by HTRF assay; assay type: functional, cell-based
[6] = Toxicity in MOG (35 to 55 residues)/pertussis toxin-induced experimental autoimmune encephalomyelitis C57BL/6 mouse model assessed as body weight loss at 5 to 10 mg/kg, ip administered starting from day 3 to day 28; assay type: organism-based; conditions: in vivo, 600 h, dose 5-10 mg/kg, time 25 day
[7] = Metabolic stability in rat liver microsomes assessed as half life; assay type: ADME, Microsome
[8] = AUCinfinity in C57BL/6 mouse at 10 mg/kg, ip measured upto 24 hrs by LC/MS-MS analysis; assay type: ADME, organism-based; design: dose 10 mg/kg, time < 24 hrs, route ip; conditions: in vivo
[9] = AUClast in C57BL/6 mouse at 10 mg/kg, ip measured upto 24 hrs by LC-MS/MS analysis; assay type: ADME, organism-based; design: time < 24 hrs, dose 10 mg/kg, route ip; conditions: in vivo
Mus musculus [10] = assay: Antiinflammatory activity in MOG (35 to 55 residues)/pertussis toxin-induced experimental autoimmune encephalomyelitis C57BL/6 mouse model assessed as reduction in clinical score administered intraperitoneally starting from day 3 to day 28; assay type: functional, organism-based; conditions: route ip, time 25.0 day, DDE = dose-dependent effect
Cannabinoid receptor 1 [11] = molecular target: T2, Cannabinoid receptor 1 (Homo sapiens, UniProt P21554); assay: Agonist activity at recombinant human CB1 receptor expressed in CHO cells assessed as inhibition of forskolin-induced cAMP accumulation by measuring maximum efficacy preincubated for 15 mins followed by forskolin stimulation and measured after 15 mins by HTRF assay relative to control; assay type: functional, cell-based; conditions: filed as agonist, time 30.0 min
T2 sequence (P21554 whole entry): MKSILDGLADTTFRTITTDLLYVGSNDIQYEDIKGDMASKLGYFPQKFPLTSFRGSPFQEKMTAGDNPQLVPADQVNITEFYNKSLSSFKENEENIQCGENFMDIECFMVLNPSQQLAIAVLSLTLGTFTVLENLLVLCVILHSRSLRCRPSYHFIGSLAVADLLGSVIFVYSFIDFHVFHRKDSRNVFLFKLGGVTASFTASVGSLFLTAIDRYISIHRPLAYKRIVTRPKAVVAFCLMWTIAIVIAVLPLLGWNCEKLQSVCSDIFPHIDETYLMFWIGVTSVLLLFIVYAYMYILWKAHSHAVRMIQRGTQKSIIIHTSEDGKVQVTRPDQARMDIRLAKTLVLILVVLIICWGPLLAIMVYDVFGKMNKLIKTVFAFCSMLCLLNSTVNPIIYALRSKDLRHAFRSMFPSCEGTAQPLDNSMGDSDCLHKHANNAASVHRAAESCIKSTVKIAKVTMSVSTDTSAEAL

[12] = Metabolic stability in rat liver microsomes assessed as intrinsic clearance; assay type: ADME, Microsome; conditions: read-out: CLH
Cannabinoid receptor 1 [13] = molecular target: T2, Cannabinoid receptor 1; assay: Agonist activity at recombinant human CB1 receptor expressed in CHO cells assessed as inhibition of forskolin-induced cAMP accumulation preincubated for 15 mins followed by forskolin stimulation and measured after 15 mins by HTRF assay; assay type: functional, cell-based
Cannabinoid receptor 1 [14] = molecular target: T2, Cannabinoid receptor 1; assay: Displacement of [3H]-CP55940 from recombinant human CB1 receptor expressed in CHO cells assessed as inhibition constant incubated for 120 mins by radioligand binding assay; assay type: cell-based
[15] = Metabolic stability in mouse liver microsomes assessed as half life; assay type: ADME, Microsome
[16] = Half life in C57BL/6 mouse at 10 mg/kg, ip measured upto 24 hrs by LC-MS/MS analysis; assay type: ADME, organism-based; conditions: in vivo
Mus musculus [17] = assay: as §1, with “infarcted brain proportion” for “demyelination in transverse section of lumbar spinal cords”, “TTC” for “H&E”, “analysis relative to control” for “analysis”; assay type: functional; design: scale not given: the % may be the effect or the level left; conditions: dose 5-10 mg/kg, time 25 day
[18] = Toxicity in MOG (35 to 55 residues)/pertussis toxin-induced experimental autoimmune encephalomyelitis C57BL/6 mouse model assessed as behavioral changes at 10 mg/kg, ip administered once daily starting from day 3 to day 28; assay type: organism-based; conditions: in vivo, 600 h, time 25 day
[19] = Metabolic stability in human liver microsomes assessed as intrinsic clearance; assay type: ADME, Microsome; conditions: read-out: CLH
[20] = Metabolic stability in human liver microsomes assessed as half life; assay type: ADME, Microsome
Mus musculus [21] = assay: as §1, with “of inflammatory cell infiltration” for “in demyelination”; assay type: functional, organism-based; conditions: dose 5-10 mg/kg, time 25.0 day
[22] = Cmax in C57BL/6 mouse at 10 mg/kg, ip measured upto 24 hrs by LC-MS/MS analysis; assay type: ADME, organism-based; design: dose 10 mg/kg, time < 24 hrs, route ip; conditions: in vivo
Mus musculus [23] = assay: as §1, with “LFB” for “H&E”; assay type: functional, organism-based; conditions: dose 5-10 mg/kg, time 25.0 day
Mus musculus [24] = assay: as §1, with “of inflammatory cell infiltration” for “in demyelination”, “LFB” for “H&E”; assay type: functional, organism-based; conditions: dose 5-10 mg/kg, time 25.0 day
Cannabinoid receptor 2 [25] = molecular target: T1, Cannabinoid receptor 2; assay: Agonist activity at recombinant human CB2 receptor expressed in CHO cells assessed as inhibition of forskolin-induced cAMP accumulation by measuring maximum efficacy preincubated for 15 mins followed by forskolin stimulation and measured after 15 mins by HTRF assay relative to control; assay type: functional, cell-based; conditions: filed as agonist, time 30.0 min

## C=C(C)[C@@H]1CCC(C)=C[C@H]1c1c(O)cc([Si](C)(C)CCCCCC)cc1O
[1]
  CLint scaled: 128 mL/min/kg
[2]
  Tmax: 120 min
Cannabinoid receptor 2 [3]
  Ki: 4.66 nM
Mus musculus [4]
  Activity: Active
Cannabinoid receptor 2 [5]
  EC50: 149 nM
[6]
  Activity: Non-Toxic
[7]
  half-life: 19.4 min
[8]
  AUC(0-inf): 6840 ng·h/mL
[9]
  AUC(0-t) at 24 h: 6630 ng·h/mL
Mus musculus [10]
  Activity: Dde
Cannabinoid receptor 1 [11]
  Emax: 95.9%
[12]
  CLint scaled: 318 mL/min/kg
Cannabinoid receptor 1 [13]
  EC50: 219 nM
Cannabinoid receptor 1 [14]
  Ki: 1.56 nM
[15]
  half-life: 17.1 min
[16]
  half-life: 314 min
Mus musculus [17]
  Activity: 50%
[18]
  Activity: Toxic
[19]
  CLint scaled: 55.2 mL/min/kg
[20]
  half-life: 31.5 min
Mus musculus [21]
  Activity: Active
[22]
  Cmax: 1510 ng/mL
Mus musculus [23]
  Activity: Active
Mus musculus [24]
  Activity: Active
Cannabinoid receptor 2 [25]
  Emax: 75.6%
